Measurements taken from PubChem BioAssay (NCI).
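1) Cells in 96-well plates. 2) Compound, 48 h, 5 concentrations. 3) Linear interpolation between surrounding doses. 4) Unreached endpoint = highest concentration. At the GI50, growth is halved. TGI denotes the concentration required for complete inhibition of growth.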

Key:
Assay in all cases: NCI anticancer screen, dose series, 48 h
CAKI-1 renal = tested on: CAKI-1 renal
DU-145 prostate = tested on: DU-145 prostate
NCI/ADR-RES ovarian = tested on: NCI/ADR-RES ovarian
SF-295 CNS = tested on: SF-295 CNS
SNB-75 CNS = tested on: SNB-75 CNS
A549 NSCLC = tested on: A549 NSCLC
HT29 colon = tested on: HT29 colon
IGROV1 ovarian = tested on: IGROV1 ovarian
NCI-H23 lung = tested on: NCI-H23 lung
SF-268 CNS = tested on: SF-268 CNS

Row | Structure (SMILES) | GI50 (CAKI-1 renal) | TGI (CAKI-1 renal) | GI50 (DU-145 prostate) | TGI (DU-145 prostate) | GI50 (NCI/ADR-RES ovarian) | TGI (NCI/ADR-RES ovarian) | GI50 (SF-295 CNS) | TGI (SF-295 CNS) | GI50 (SNB-75 CNS) | TGI (SNB-75 CNS) | GI50 (A549 NSCLC) | TGI (A549 NSCLC) | GI50 (HT29 colon) | TGI (HT29 colon) | GI50 (IGROV1 ovarian) | TGI (IGROV1 ovarian) | GI50 (NCI-H23 lung) | TGI (NCI-H23 lung) | GI50 (SF-268 CNS) | TGI (SF-268 CNS)
1 | Cl.Fc1c[c-]c(-c2ccccn2)c(F)c1.[Pt].c1ccc([PH+](CC[PH+](c2ccccc2)c2ccccc2)c2ccccc2)cc1 | 0.246 µM | 0.948 µM | 0.0656 µM | 1.2 µM | 1.01 µM | 4.18 µM | 0.0474 µM | 0.328 µM | 0.0234 µM | 0.534 µM | – | – | – | – | – | – | – | – | – | –
2 | O=C(Nc1ccncc1)C(=O)c1cn(S(=O)(=O)c2ccccc2F)c2ccccc12 | 2.43 µM | > 70.8 µM | 3.48 µM | 18.5 µM | 0.579 µM | > 100 µM | 2.11 µM | 10.2 µM | 1.65 µM | 18 µM | 13.5 µM | 59.8 µM | 0.45 µM | > 31.9 µM | 3.83 µM | > 100 µM | 0.965 µM | > 34.8 µM | 2.32 µM | > 79.3 µM
3 | CCc1oc2ccccc2c1C(=O)c1cc(Br)c(O)c(Br)c1 | – | > 100 µM | – | > 100 µM | – | 87.2 µM | – | 83.5 µM | – | 48.6 µM | – | > 100 µM | – | 74.7 µM | – | > 100 µM | – | 54.8 µM | – | 84.7 µM
4 | Cc1cc(-c2nc3ccc(O)cc3s2)ccc1N | – | > 100 µM | 34.1 µM | > 100 µM | 91.1 µM | > 100 µM | 31.5 µM | > 100 µM | 15.8 µM | 71 µM | 34.5 µM | > 100 µM | 37.5 µM | > 100 µM | 47.5 µM | > 100 µM | 12.5 µM | 43.7 µM | 35.6 µM | > 100 µM
5 | O=C(CNC(=O)c1cccc2ccccc12)Nc1ccccc1Oc1ccccc1 | 0.353 µM | > 10 µM | 0.325 µM | > 10 µM | 0.239 µM | > 10 µM | 0.25 µM | > 10 µM | 0.231 µM | > 10 µM | 0.459 µM | > 10 µM | 0.29 µM | 1.07 µM | 0.91 µM | > 10 µM | 0.658 µM | > 10 µM | 0.435 µM | > 10 µM
6 | COc1cc2c(OC)c(c1)CCCC1=CC(=O)C=C(CCC2)C1=O | – | > 100 µM | – | > 100 µM | – | > 65.7 µM | – | > 100 µM | – | > 100 µM | – | > 100 µM | – | > 100 µM | – | > 100 µM | – | > 100 µM | – | > 100 µM
7 | CCOC(=O)C#Cc1ccc(C#CC(=O)OCC)cc1 | – | > 20.2 µM | – | > 28 µM | – | 15.3 µM | – | > 32.1 µM | – | 0.609 µM | – | > 37.5 µM | – | 5.27 µM | – | > 100 µM | – | > 30 µM | – | > 22.4 µM
8 | Cc1nc(NC(=S)Nc2ccc(F)cc2)sc1C(=O)NNC(=S)Nc1ccc(F)cc1 | 11.4 µM | 44.9 µM | 5.53 µM | 22.3 µM | 3.62 µM | 18.2 µM | 3.96 µM | 21.1 µM | 15.3 µM | 54.7 µM | 5.29 µM | 45.5 µM | 8.58 µM | 25.3 µM | – | – | 2.78 µM | 9.73 µM | 10.7 µM | 28.5 µM
9 | C=C1C(=O)O[C@@H]2C[C@@H](C)[C@@H]3[C@@H](OC4OC(COC(C)=O)C(O)C(O)C4O)CC(=O)[C@@]3(C)C[C@H]12 (some centres undefined) | – | 1.01 µM | – | 21.5 µM | – | 14.5 µM | – | 31.3 µM | – | 15.3 µM | – | 22.3 µM | – | 2.93 µM | – | 6.2 µM | – | 25.7 µM | – | 44.7 µM
10 | COc1cc(-c2cc(-c3nc4ccccc4[nH]3)[nH]n2)cc(OC)c1OC | 2.24 µM | 14.4 µM | 3.9 µM | 16.7 µM | 2.88 µM | 8.49 µM | 3.13 µM | 14.7 µM | 2.83 µM | 12.8 µM | 2.43 µM | 15.1 µM | 7.16 µM | 51.2 µM | 2.34 µM | 15.4 µM | 2.26 µM | 14.4 µM | 6.43 µM | 21.9 µM
11 | Cc1cc(S(=O)(=O)NC#N)c(S/C(=N\Nc2ccc([N+](=O)[O-])cc2)c2ccccc2)cc1Cl | 21.1 µM | 45.8 µM | 11.7 µM | 24 µM | – | – | 15.9 µM | 34 µM | 20.4 µM | > 100 µM | 18.7 µM | 40.8 µM | – | – | 17.9 µM | 39.3 µM | 15.4 µM | 28.8 µM | 19.2 µM | 43.7 µM
12 | Cc1ccc(C(=O)N/N=C/c2cccc(Oc3ccccc3)c2)cn1 | 4.41 µM | > 100 µM | 18.7 µM | > 100 µM | 4.43 µM | > 71.4 µM | 3.36 µM | > 36.5 µM | 4.85 µM | > 60.7 µM | 17 µM | > 100 µM | 3.25 µM | > 100 µM | 19 µM | > 100 µM | 26.6 µM | > 100 µM | 34.5 µM | > 100 µM
13 | COc1ccc(C(=O)/C=C/c2cc(C(=O)c3cc(OC)c(OC)c(OC)c3)ccc2OC)cc1 | – | – | – | – | 2.93 µM | > 100 µM | 6.27 µM | > 100 µM | 4.75 µM | 33.7 µM | > 100 µM | > 100 µM | – | – | 8.82 µM | > 100 µM | – | – | 3.51 µM | > 100 µM
14 | O=C(Nc1cc(Cl)ccc1O)c1cccc(NC2=C(Cl)C(=O)N(Cc3ccccc3)C2=O)c1 | 22.5 µM | 68 µM | 60.7 µM | > 100 µM | 20.7 µM | 43.4 µM | 20.5 µM | 47.6 µM | – | – | 36.9 µM | > 100 µM | 35.9 µM | > 100 µM | 35.4 µM | > 100 µM | 16.1 µM | 33.6 µM | 18.5 µM | 38.2 µM
15 | CCOC(=O)[C@@H](C)C[C@H](Cc1ccccc1)NC(=O)c1csc([C@@H](C[C@H](C(C)C)N(C)C(=O)[C@H](CCC(C)C)NC(=O)[C@H]2CCCCN2C)OC(C)=O)n1 | – | – | 0.00892 µM | 26.2 µM | 0.143 µM | 24 µM | 0.00575 µM | 3.68 µM | – | – | 0.0145 µM | > 33.3 µM | < 0.00333 µM | 0.0811 µM | 0.00335 µM | 29.8 µM | 0.0129 µM | > 33.3 µM | 0.0205 µM | 5.87 µM
